What is called EC50 is the midpoint of the concentration-response curve.

The source of these data is patent US20230286973A1, “PROTEIN SECRETION INHIBITORS” (KEZAR LIFE SCIENCES, priority 2020, published 2023).

Bounds are passed on as bounds.

Series [1] concerns PD1-ss+10aa/Gaussia Luciferase. The series can be described thus: Dox-Induced PD1-ss-Gluc Assay. It is filed as cell-based. As to conditions: 24 hr Dox induction; 293FRT/TO cells; read-out: 24 hr Dox Inducible PD1ssGluc 293FRT/TO: Mean IC50. The method, boiled down: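 Doxycycline-induced expression of a PD1-ss+10aa/Gaussia luciferase reporter is measured in stable Flp-In 293 T-REx cells. Compound dilutions containing doxycycline are added one day after plating and incubated at 37 °C, 5% CO2. Values for unassigned stereocentres refer to stereoisomer mixtures.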

The subject of series [2] is TNFα-FL/Gaussia Luciferase. Put plainly: Dox Induced TNFα-FL-Gluc Assay. It is filed as cell-based. The note with it: for IC50: 24 hr Dox induction, 293FRT/TO cells, read-out: 24 hr Dox Inducible TNFaFLGluc 293FRT/TO: Mean IC50; for 24 hr Dox Inducible TNFaFLGluc 293FRT/TO: TNF/PD1: ratio of TNFaFLGluc IC50 to PD1ssGluc IC50. The method, boiled down: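 Cell line: stable Flp-In 293 T-REx, TNFα-FL(1-233)-Gaussia luciferase fusion, T-REx-inducible. Plated day -1; compounds in DMSO/media + doxycycline, 37 °C, 5% CO2. Undefined stereocentres = mixture tested.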

Series [3] deals with HER3-ss+4aa/Gaussia Luciferase. Put plainly: Dox-Induced Her3-ss-Gluc Assay. It is filed as cell-based. As to conditions: 24 hr Dox induction; 293FRT/TO cells; read-out: 24 hr Dox Inducible Her3(ss + 4)Gluc 293FRT/TO: Mean IC50. The method in brief: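 Flp-In 293 T-REx cells, stable HER3-ss+4aa/Gaussia luciferase insert, hygromycin/blasticidin selected; plated day before; compound in DMSO/media + doxycycline; 37° C., 5% CO2.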

The test system of series [4] is IL-2-FL/Gaussia Luciferase. Put plainly: Dox Induced IL2-FL-Gluc Assay. The note with it: for IC50: 24 hr Dox induction, 293FRT/TO cells, read-out: 24 hr Dox Inducible IL2FLGluc 293FRT/TO: Mean IC50; for 24 hr Dox Inducible IL2FLGluc 293FRT/TO: IL2/PD1: ratio of IL2FLGluc IC50 to PD1ssGluc IC50. It is filed as cell-based. The method, boiled down: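 Stable Flp-In 293 T-REx line, Tet-regulated IL-2 (aa 1-153)–Gaussia luciferase fusion; hygromycin/blasticidin selected. Plated day -1; compound + doxycycline added next day; 37° C, 5% CO2.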

Series [5] concerns multiple myeloma cell line NCI-H929. Put plainly: H929 Cell Viability Assay. It is filed as cell-based, human. The note with it: Homo sapiens, NCI-H929, 48 h, NCI-H929 cells, Celltiter-Glo. The method in brief:
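Cells in RPMI 1640/10% FBS; compound dilutions in DMSO/media; 48 h, 37° C, 5% CO2; CellTiter-Glo luciferase readout for viability.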
(ATP-based viability assays read luminescence as a measure of living cells.)

For series [6], the system named is multiple myeloma cell line U266B1. Put plainly: U266 Cell Viability Assay. It is filed as cell-based, human. As to conditions: Homo sapiens, U-266, 48 h, U266B1 cells, Celltiter-Glo. The method, boiled down: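 Luminescent ATP read-out (CellTiter-Glo) after 48 h compound exposure at 37° C., 5% CO2; cells maintained in RPMI 1640/10% FBS/2 mM glutamine/pen-strep, compounds diluted in DMSO/media.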

Series [7] can be described thus: Liver Microsome Stability Assay (rat). The note with it: rat liver microsomes, with NADPH, 1.0 uM compound. A general note: Microsomes from liver hold many membrane-bound enzymes, among them those of drug oxidation.
Experimental: (§1) Stability of a compound was assessed in the presence of liver microsomes from various sources—mouse, rat, monkey and human liver microsomes. 1.0 uM compound, 0.4% DMSO in 0.1 M Potassium Phosphate with 1.0 mg/mL liver microsomes, were incubated at 37° C. with or without 1 mM NADPH. The samples were quenched at 0, and 30 minutes.
The nature of series [8]: Liver Microsome Stability Assay (mouse). As to conditions: mouse liver microsomes, with NADPH, 1.0 uM compound.
Experimental: as §1
Series [9] in a line: Liver Microsome Stability Assay (human). As to conditions: human liver microsomes, with NADPH, 1.0 uM compound.
Experimental: as §1
The nature of series [10]: Liver Microsome Stability Assay (monkey). The note with it: monkey liver microsomes, with NADPH, 1.0 uM compound.
Experimental: as §1

As for `O=C(Nc1nc([C@H]2CCCN2c2ccc(CCO)cc2)cs1)c1cccn1Cc1ccnc(F)c1` [Compound A78, (R)-1-((2-fluoropyridin-4-yl)methyl)-N-(4-(1-(4-(2-hydroxyethyl)phenyl)pyrrolidin-2-yl)thiazol-2-yl)-1H-pyrrole-2-carboxamide], the IC50 turned out to be 13.2 nM in series [1], 159 nM in series [2], 27.7 nM in series [3] and 30.1 nM in series [4]. The “24 hr Dox Inducible TNFaFLGluc 293FRT/TO: TNF/PD1” value in series [2] was 12. Besides, the “24 hr Dox Inducible IL2FLGluc 293FRT/TO: IL2/PD1” value in series [4] worked out at 2.3. Moreover, the results for the EC50 in series [5] and in series [6] were 495 nM and above 25000 nM, respectively. In addition, in [7], the “Liver Microsome Stability (Multiple Species): Rat - % Remaining after 30 min w/NADPH” value was 3.42%. In [8], the “Liver Microsome Stability (Multiple Species): Mouse - % Remaining after 30 min w/NADPH” value turned out to be 6.09%. The “Liver Microsome Stability (Multiple Species): Human - % Remaining after 30 min w/NADPH” value in [9] worked out at 6.01%. Also, the “Liver Microsome Stability (Multiple Species): Monkey - % Remaining after 30 min w/NADPH” value in [10] is given as 3.13%.

Turning to `CC(=O)N1CCC(Oc2ccc(N3CCC[C@@H]3c3csc(NC(=O)c4cccn4Cc4ccnc(F)c4)n3)cc2)C1` (stereo partly drawn) [Compound A79, N-(4-((2R)-1-(4-((1-acetylpyrrolidin-3-yl)oxy)phenyl)pyrrolidin-2-yl)thiazol-2-yl)-1-((2-fluoropyridin-4-yl)methyl)-1H-pyrrole-2-carboxamide], the IC50 in [1] is 10.8 nM; in [2], 171 nM; in series [3], 23.2 nM; in series [4], 29.7 nM. Also, the “24 hr Dox Inducible TNFaFLGluc 293FRT/TO: TNF/PD1” value in series [2] turned out to be 15.9. Further, the “24 hr Dox Inducible IL2FLGluc 293FRT/TO: IL2/PD1” value in series [4] is recorded as 2.8. Also, the results for the EC50 in series [5] and in series [6] were 345 nM and above 25000 nM, respectively. The “Liver Microsome Stability (Multiple Species): Rat - % Remaining after 30 min w/NADPH” value in series [7] is reported as 37.7%. The “Liver Microsome Stability (Multiple Species): Mouse - % Remaining after 30 min w/NADPH” value in series [8] is 5.88%. Moreover, the “Liver Microsome Stability (Multiple Species): Human - % Remaining after 30 min w/NADPH” value in series [9] is given as 5.48%. In addition, the “Liver Microsome Stability (Multiple Species): Monkey - % Remaining after 30 min w/NADPH” value in series [10] was 0.78%.

Consider `O=C(Nc1nc([C@H]2CCCN2c2ccc(OC3CCNC3)cc2)cs1)c1cccn1Cc1ccnc(F)c1` (stereo partly drawn) [Compound A80, 1-((2-fluoropyridin-4-yl)methyl)-N-(4-((2R)-1-(4-(pyrrolidin-3-yloxy)phenyl)pyrrolidin-2-yl)thiazol-2-yl)-1H-pyrrole-2-carboxamide], for which the IC50 in [1] was 595 nM; in [2], 11400 nM; in series [3] it was 1070 nM; in [4], 1840 nM. Besides, in [2], the “24 hr Dox Inducible TNFaFLGluc 293FRT/TO: TNF/PD1” value was found to be 19.1. The “24 hr Dox Inducible IL2FLGluc 293FRT/TO: IL2/PD1” value in series [4] is 3.1. The values for the EC50 in [5] and in [6] were 5730 nM and 7780 nM, respectively. Moreover, in series [7], the “Liver Microsome Stability (Multiple Species): Rat - % Remaining after 30 min w/NADPH” value is 88.1%. The “Liver Microsome Stability (Multiple Species): Mouse - % Remaining after 30 min w/NADPH” value in series [8] was found to be 71.9%. Also, the “Liver Microsome Stability (Multiple Species): Human - % Remaining after 30 min w/NADPH” value in series [9] is 51%. In addition, the “Liver Microsome Stability (Multiple Species): Monkey - % Remaining after 30 min w/NADPH” value in series [10] amounted to 17.6%.

On to `CC(=O)N1CC(Oc2ccc(N3CCC[C@@H]3c3csc(NC(=O)c4cccn4Cc4ccnc(F)c4)n3)cc2)C1` [Compound A81, (R)-N-(4-(1-(4-((1-acetylazetidin-3-yl)oxy)phenyl)pyrrolidin-2-yl)thiazol-2-yl)-1-((2-fluoropyridin-4-yl)methyl)-1H-pyrrole-2-carboxamide], for which the IC50 in series [1] amounted to 14 nM; in series [2], 143 nM; in [3] it was 23.7 nM; in series [4] it was 41.5 nM. Moreover, the “24 hr Dox Inducible TNFaFLGluc 293FRT/TO: TNF/PD1” value in [2] came to 10.2. In addition, in series [4], the “24 hr Dox Inducible IL2FLGluc 293FRT/TO: IL2/PD1” value is 3. The EC50 was 679 nM in series [5] and above 25000 nM in series [6]. Further, in series [7], the “Liver Microsome Stability (Multiple Species): Rat - % Remaining after 30 min w/NADPH” value is given as 68.9%. In addition, the “Liver Microsome Stability (Multiple Species): Mouse - % Remaining after 30 min w/NADPH” value in series [8] came to 39.5%. In addition, the “Liver Microsome Stability (Multiple Species): Human - % Remaining after 30 min w/NADPH” value in series [9] is 12.8%. Also, the “Liver Microsome Stability (Multiple Species): Monkey - % Remaining after 30 min w/NADPH” value in series [10] is 8.77%.

As for `CC(=O)N1CC=C(Oc2ccc(N3CCC[C@@H]3c3csc(NC(=O)c4cccn4Cc4ccnc(F)c4)n3)cc2)CC1` [Compound A82, (R)-N-(4-(1-(4-((1-acetyl-1,2,3,6-tetrahydropyridin-4-yl)oxy)phenyl)pyrrolidin-2-yl)thiazol-2-yl)-1-((2-fluoropyridin-4-yl)methyl)-1H-pyrrole-2-carboxamide], the IC50 in series [1] was found to be 78.6 nM; in series [2] it was 653 nM; in series [3], 210 nM; in [4] it was 249 nM. The “24 hr Dox Inducible TNFaFLGluc 293FRT/TO: TNF/PD1” value in [2] came to 8.31. Also, the “24 hr Dox Inducible IL2FLGluc 293FRT/TO: IL2/PD1” value in [4] worked out at 3.2. The EC50 in series [5] was 5660 nM; in series [6], above 25000 nM. For the same compound, the “Liver Microsome Stability (Multiple Species): Rat - % Remaining after 30 min w/NADPH” value in series [7] was found to be 15.3%. Also, in series [8], the “Liver Microsome Stability (Multiple Species): Mouse - % Remaining after 30 min w/NADPH” value came to 0.84%. In series [9], the “Liver Microsome Stability (Multiple Species): Human - % Remaining after 30 min w/NADPH” value is given as 3.95%. Besides, the “Liver Microsome Stability (Multiple Species): Monkey - % Remaining after 30 min w/NADPH” value in [10] was 0.16%.

Consider `CC(=O)N1CCC[C@@H](Oc2ccc(N3CCC[C@@H]3c3csc(NC(=O)c4cccn4Cc4ccnc(F)c4)n3)cc2)C1` [Compound A83], for which the IC50 in series [1] amounted to 82.1 nM; in [2], 1530 nM; in series [3], 249 nM; in [4], 232 nM. For the same compound, in series [2], the “24 hr Dox Inducible TNFaFLGluc 293FRT/TO: TNF/PD1” value is 18.6. Further, the “24 hr Dox Inducible IL2FLGluc 293FRT/TO: IL2/PD1” value in series [4] turned out to be 2.8. The EC50 in [5] is 4000 nM; in series [6], above 25000 nM. In addition, in series [7], the “Liver Microsome Stability (Multiple Species): Rat - % Remaining after 30 min w/NADPH” value came to 16.6%. The “Liver Microsome Stability (Multiple Species): Mouse - % Remaining after 30 min w/NADPH” value in series [8] amounted to 0.55%. Further, in series [9], the “Liver Microsome Stability (Multiple Species): Human - % Remaining after 30 min w/NADPH” value worked out at 0.64%. Further, in series [10], the “Liver Microsome Stability (Multiple Species): Monkey - % Remaining after 30 min w/NADPH” value came to 0.16%.

With `CC(=O)N1CCC[C@H](Oc2ccc(N3CCC[C@@H]3c3csc(NC(=O)c4cccn4Cc4ccnc(F)c4)n3)cc2)C1` [Compound A84, N-(4-((R)-1-(4-(((S)-1-acetylpiperidin-3-yl)oxy)phenyl)pyrrolidin-2-yl)thiazol-2-yl)-1-((2-fluoropyridin-4-yl)methyl)-1H-pyrrole-2-carboxamide], the IC50 in [1] turned out to be 40.7 nM; in series [2], 310 nM; in series [3], 62.6 nM; in [4], 87 nM. Further, in series [2], the “24 hr Dox Inducible TNFaFLGluc 293FRT/TO: TNF/PD1” value worked out at 7.61. In series [4], the “24 hr Dox Inducible IL2FLGluc 293FRT/TO: IL2/PD1” value was 2.1. The EC50 in [5] is 1050 nM; in series [6], above 25000 nM. In addition, the “Liver Microsome Stability (Multiple Species): Rat - % Remaining after 30 min w/NADPH” value in series [7] turned out to be 2.51%. For the same compound, the “Liver Microsome Stability (Multiple Species): Mouse - % Remaining after 30 min w/NADPH” value in [8] was 1%. Further, the “Liver Microsome Stability (Multiple Species): Human - % Remaining after 30 min w/NADPH” value in [9] is 0.5%. Besides, in series [10], the “Liver Microsome Stability (Multiple Species): Monkey - % Remaining after 30 min w/NADPH” value was 0.73%.
